Data on five molecules can be found in patent US12180187B2, “1-phenyl-5-azinylpyrazolyl-3-oxyalkyl acids and their use for controlling unwanted plant growth” (BAYER AKTIENGESELLSCHAFT, priority 2019, dated 2024).

For assay [1], the system named is VERPE. The assay can be described thus: Pre-emergence action against VERPE, 1280 g/ha. Type of assay: in vivo, Veronica persica. Particulars: scored visually after about 3 weeks vs untreated controls (100% = plants have died); for pest or weed control at 1280 g/ha: Veronica persica, 504 h. In short, it runs like this:
(§1)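 Greenhouse pre-emergence test on sown seeds in sandy loam; soil-surface spray of formulated compound with 0.5% additive at 600 L/ha water. Scored visually, % vs untreated, after about 3 weeks.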

Assay [2] has as its system MATIN. Briefly: Post-emergence action against MATIN, 1.28 kg/ha. Type of assay: in vivo, Tripleurospermum inodorum (Matricaria inodora). Conditions: dosage 1280 g/ha, visual rating about 3 weeks after treatment vs untreated controls (100% = plants died). In short, it runs like this: (§2)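 Greenhouse pot test, sandy loam; weeds sprayed post-emergence at one-leaf stage (2–3 weeks after sowing) with WP or EC formulation plus 0.5% additive, 600 l/ha water. Visual rating after about 3 weeks versus untreated controls, 100% = plants dead, 0% = like control.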

Assay [3] relates to ABUTH. Briefly: Post-emergence action at 320 g/ha against ABUTH. Type of assay: in vivo, Abutilon theophrasti. Particulars: visual rating about 3 weeks after treatment vs untreated controls. In short, it runs like this: (§3)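 Activity is a visual rating against untreated controls, with 0% like control and 100% dead plants, made about 3 weeks after treatment. Plants grown in sandy loam in the greenhouse received a post-emergence spray at the one-leaf stage of 320 g/ha, formulated as WP or EC with 0.5% additive in 600 l/ha water.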

The test system of assay [4] is SETVI. Briefly: Post-emergence action at 320 g/ha against SETVI. Type of assay: in vivo, Setaria viridis. Conditions: visual rating about 3 weeks after treatment vs untreated controls. In short, it runs like this: as §3
Assay [5] has as its system MATIN. The assay can be described thus: Pre-emergence action at 320 g/ha against MATIN. Conditions: visual scoring after about 3 weeks vs untreated controls; for pest or weed control at 320 g/ha: Tripleurospermum inodorum, 504 h. Type of assay: in vivo, Tripleurospermum inodorum (Matricaria inodora). The essentials: (§4)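 Percent herbicidal activity was assessed by eye roughly three weeks post-application, comparing with untreated plants. Treatment consisted of applying formulated compound in water plus 0.5% additive to covering soil at 600 l/ha before emergence.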

Assay [6] concerns PHBPU. The assay can be described thus: Post-emergence action at 320 g/ha against PHBPU. Type of assay: in vivo. Particulars: visual rating about 3 weeks after treatment vs untreated controls. In short, it runs like this:
as §3

Assay [7] concerns STEME. Briefly: Pre-emergence action at 320 g/ha against STEME. Type of assay: in vivo, Stellaria media. Conditions: greenhouse, scored visually after about 3 weeks vs untreated controls, 100% = plants have died, 0% = like control plants. The essentials:
as §4

Assay [8] has as its system POLCO. The assay can be described thus: Post-emergence action at 320 g/ha against POLCO. Particulars: visual rating about 3 weeks after treatment vs untreated controls; for pest or weed control at 320 g/ha: Fallopia convolvulus, 504 h. Type of assay: in vivo, Fallopia convolvulus (Polygonum convolvulus). In short, it runs like this:
as §3

Assay [9] relates to AMARE. The assay can be described thus: Post-emergence action at 320 g/ha against AMARE. Conditions: visual rating about 3 weeks after treatment vs untreated controls; for pest or weed control at 320 g/ha: Amaranthus retroflexus, 504 h. Type of assay: in vivo, Amaranthus retroflexus. In short, it runs like this:
as §3

Assay [10] deals with HORMU. The assay can be described thus: Post-emergence action at 320 g/ha against HORMU. Type of assay: in vivo, Hordeum murinum. Conditions: visual rating about 3 weeks after treatment vs untreated controls. The text has this:
Accordingly, the compounds of the invention have good herbicidal action against a broad spectrum of weed grasses and broad-leaved weeds and are therefore suitable for controlling unwanted vegetation by the post-emergence method. • b) Seeds of monocotyledonous and dicotyledonous weeds and crop plants are placed in sandy loam in plastic or organic planting pots, covered with soil and cultivated in a greenhouse under controlled growth conditions. 2 to 3 weeks after sowing, the test plants are treated at the one-leaf stage. The compounds of the invention, formulated in the form of wettable powders (WP) or as emulsion concentrates (EC), are then sprayed onto the green parts of the plants as aqueous suspension or emulsion with addition of 0.5% additive at a water application rate of 600 l/ha (converted). After the test plants have been kept in the greenhouse under optimum growth conditions for about 3 weeks, the activity of the preparations is rated visually in comparison to untreated controls. For example, 100% activity=the plants have died, 0% activity=like control plants. Tables 39 to 49 below show the effects of selected compounds of the general formula (I) according to Tables 1 and 2 on various harmful plants and at an application rate corresponding to 320 g/ha, which were obtained by the experimental procedure mentioned above.

In assay [11] the test system is ECHCG. Briefly: Post-emergence action against ECHCG, 1.28 kg/ha. Type of assay: in vivo, Echinochloa crus-galli. Particulars: dosage 1280 g/ha, visual rating about 3 weeks after treatment vs untreated controls; for pest or weed control at 1280 g/ha: Echinochloa crus-galli, 504 h. The essentials: as §2
Assay [12] deals with ALOMY. The assay can be described thus: Post-emergence action against ALOMY, 320 g/ha. Type of assay: in vivo, Alopecurus myosuroides. Conditions: dosage 320 g/ha, visual rating about 3 weeks after treatment vs untreated controls (100% = plants died). In short, it runs like this:
as §3

Assay [13] relates to DIGSA. The assay can be described thus: Pre-emergence action against DIGSA, 1280 g/ha. Type of assay: in vivo, Digitaria sanguinalis. Conditions: visual scoring after about 3 weeks vs untreated controls, 100% = plants have died, 0% = like control plants. The essentials: as §1
Assay [14] has as its system KCHSC. The assay can be described thus: Pre-emergence action against KCHSC, 1280 g/ha. Conditions: scored visually after about 3 weeks vs untreated controls (100% = plants have died). Type of assay: in vivo, Bassia scoparia. In short, it runs like this:
as §1

The test system of assay [15] is ALOMY. The assay can be described thus: Pre-emergence action against ALOMY, 1280 g/ha. Type of assay: in vivo, Alopecurus myosuroides. Conditions: visual scoring after about 3 weeks vs untreated controls, 100% = plants have died, 0% = like control plants. The essentials:
as §1

Assay [16] deals with KCHSC. The assay can be described thus: Post-emergence action against KCHSC, 1.28 kg/ha. Conditions: dosage 1280 g/ha, visual rating about 3 weeks after treatment vs untreated controls (100% = plants died). Type of assay: in vivo, Bassia scoparia. The essentials:
as §2

Consider `COC(=O)COc1nn(-c2ccccc2F)c(-c2cncnc2)c1Br` [VI-004, Methyl {[4-bromo-1-(2-fluorophenyl)-5-(pyrimidin-5-yl)-1H-pyrazol-3-yl]oxy}acetate], for which the pest or weed control at 1280 g/ha in assay [1] and in [11] was 90% throughout. The “Post-emergence action against MATIN” value in [2] is on record as 100%. The “Post-emergence action against ABUTH in %” value in [3] is given as 80%. The “Post-emergence action against SETVI in %” value in assay [4] worked out at 80%. In addition, the pest or weed control at 320 g/ha in [5] stood at 100%; in assay [8] it was 80%; in [9] it was 90%. Further, the “Post-emergence action against PHBPU in %” value in assay [6] is listed as 80%. Moreover, the “Pre-emergence action at 320 g/ha against STEME in %” value in assay [7] was determined as 90%. For the same molecule, the “Post-emergence action against HORMU in %” value in assay [10] was 90%.

Turning to `COC(=O)COc1nn(-c2ccc(F)cc2)c(-c2ccc(F)nc2)c1Br` [VII-002], the “Post-emergence action against MATIN” value in [2] amounted to 90%. The “Post-emergence action against ABUTH in %” value in assay [3] worked out at 80%. In assay [4], the “Post-emergence action against SETVI in %” value turned out to be 80%. Further, the “Pre-emergence action against MATIN in %” value in assay [5] stood at 100%. In addition, in [6], the “Post-emergence action against PHBPU in %” value is recorded as 90%. Besides, in assay [7], the “Pre-emergence action at 320 g/ha against STEME in %” value stood at 90%. Besides, in [8], the “Post-emergence action against POLCO in %” value was found to be 80%. Further, the “Post-emergence action against ALOMY” value in assay [12] is 100%. Further, in assay [10], the “Post-emergence action against HORMU in %” value is listed as 90%. The “Post-emergence action against ECHCG” value in [11] stood at 90%.

As for `COC(=O)C(C)Oc1nn(-c2ccccc2)c(-c2ccc(F)nc2)c1Cl` (centres unmarked) [VII-023, Methyl 2-{[4-chloro-5-(6-fluoropyridin-3-yl)-1-phenyl-1H-pyrazol-3-yl]oxy}propanoate], the pest or weed control at 1280 g/ha amounted to 100% in assay [1] and 90% in assay [11]. The “Post-emergence action against MATIN” value in [2] amounted to 90%. For the same molecule, the “Post-emergence action against ABUTH in %” value in assay [3] was determined as 90%. Moreover, the pest or weed control at 320 g/ha in [5], in assay [8] and in assay [9] was 90% throughout. In [6], the “Post-emergence action against PHBPU in %” value was determined as 90%. In assay [13], the “Pre-emergence action against DIGSA” value stood at 90%. Moreover, the “Pre-emergence action at 320 g/ha against STEME in %” value in [7] is recorded as 90%. Moreover, in assay [12], the “Post-emergence action against ALOMY” value stood at 90%. Further, the “Post-emergence action against HORMU in %” value in assay [10] is reported as 90%.

With `CCC(Oc1nn(-c2ccccc2F)c(-c2ccc(F)nc2)c1Br)C(=O)OC` (centres unmarked) [VII-029], the “Pre-emergence action against KCHSC” value in assay [14] is 90%. For the same molecule, the “Pre-emergence action against VERPE” value in [1] came out at 100%. For the same molecule, the “Post-emergence action against ABUTH in %” value in [3] was 80%. In assay [5], the “Pre-emergence action against MATIN in %” value is listed as 90%. Further, in assay [13], the “Pre-emergence action against DIGSA” value is 100%. Also, the “Pre-emergence action at 320 g/ha against STEME in %” value in assay [7] is reported as 90%. Also, the “Post-emergence action against POLCO in %” value in [8] was 80%. Besides, the “Post-emergence action against ALOMY” value in [12] was 100%. For the same molecule, the “Pre-emergence action against ALOMY” value in [15] came to 90%. The “Post-emergence action against KCHSC” value in [16] was determined as 90%. Besides, the “Post-emergence action against HORMU in %” value in [10] is 90%. The “Post-emergence action against ECHCG” value in assay [11] is 100%.

In the case of `O=C(O)COc1nn(-c2ccccc2F)c(-c2ccnc(F)c2)c1Br` [VIII-004], the “Pre-emergence action against VERPE” value in assay [1] is 90%. Also, in assay [2], the “Post-emergence action against MATIN” value turned out to be 90%. The “Post-emergence action against SETVI in %” value in assay [4] amounted to 80%. Also, the “Pre-emergence action against MATIN in %” value in [5] stood at 90%. Moreover, the “Post-emergence action against PHBPU in %” value in assay [6] was 90%. In assay [7], the “Pre-emergence action at 320 g/ha against STEME in %” value stood at 90%. Further, in [8], the “Post-emergence action against POLCO in %” value turned out to be 80%. The “Post-emergence action against AMARE in %” value in assay [9] is listed as 90%. The “Post-emergence action against ALOMY” value in assay [12] is 90%. Besides, the “Post-emergence action against HORMU in %” value in assay [10] came out at 90%. In addition, the “Post-emergence action against ECHCG” value in assay [11] was found to be 90%.
